Assay results from US20180099931A1 (AbbVie S.à.r.l., priority 2016, published 2018).
Where two headings read alike, the source gives them in different places.

Molecular target: T1, F508delCFTR (Homo sapiens, UniProt P13569, DEL508-508)
T1 construct: expressed in transfected cells; host or cells: CFBE41o- human lung-derived epithelial cells (CFBE4lo-F508delCFTR-HRP), doxycycline-inducible
Test: Cell Surface Expression-Horse Radish Peroxidase (CSE-HRP) Assay;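 as to Maximum % activity (with co-corrector): co-corrector and positive control are both the same reference corrector at 2 µM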;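 as to Maximum % activity (without co-corrector): percent of the 2 µM on-plate positive control corrector response above DMSO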
Assay type: cell-based
Conditions: for Emax: read-out: Maximum % activity (without co-corrector)

[1] = test compound without co-corrector, maximum at any tested concentration, normalized to on-plate positive control
[2] = test compound without co-corrector, read-out: EC50 (without co-corrector)
[3] = with co-corrector (2 μM of 3-[(2R,4R)-4-({[1-(2,2-difluoro-1,3-benzodioxol-5-yl)cyclopropyl]carbonyl}amino)-7-methoxy-3,4-dihydro-2H-chromen-2-yl]benzoic acid), maximum at any tested concentration, normalized to on-plate positive control
[4] = with co-corrector (2 μM of 3-[(2R,4R)-4-({[1-(2,2-difluoro-1,3-benzodioxol-5-yl)cyclopropyl]carbonyl}amino)-7-methoxy-3,4-dihydro-2H-chromen-2-yl]benzoic acid), read-out: EC50 (with co-corrector)
[5] = with co-corrector (2 μM), maximum at any tested concentration, normalized to on-plate positive control
[6] = without co-corrector, maximum at any tested concentration, normalized to on-plate positive control
[7] = CSE-HRP, test compound without co-corrector, read-out: EC50 (without co-corrector)
[8] = CSE-HRP, with co-corrector (2 μM of 3-[(2R,4R)-4-({[1-(2,2-difluoro-1,3-benzodioxol-5-yl)cyclopropyl]carbonyl}amino)-7-methoxy-3,4-dihydro-2H-chromen-2-yl]benzoic acid), read-out: EC50 (with co-corrector)
[9] = CSE-HRP, with co-corrector (2 μM), maximum at any tested concentration, normalized to on-plate positive control
[10] = CSE-HRP, without co-corrector, maximum at any tested concentration, normalized to on-plate positive control

T1 sequence (P13569 with tags, fused parts or gaps DEL508-508): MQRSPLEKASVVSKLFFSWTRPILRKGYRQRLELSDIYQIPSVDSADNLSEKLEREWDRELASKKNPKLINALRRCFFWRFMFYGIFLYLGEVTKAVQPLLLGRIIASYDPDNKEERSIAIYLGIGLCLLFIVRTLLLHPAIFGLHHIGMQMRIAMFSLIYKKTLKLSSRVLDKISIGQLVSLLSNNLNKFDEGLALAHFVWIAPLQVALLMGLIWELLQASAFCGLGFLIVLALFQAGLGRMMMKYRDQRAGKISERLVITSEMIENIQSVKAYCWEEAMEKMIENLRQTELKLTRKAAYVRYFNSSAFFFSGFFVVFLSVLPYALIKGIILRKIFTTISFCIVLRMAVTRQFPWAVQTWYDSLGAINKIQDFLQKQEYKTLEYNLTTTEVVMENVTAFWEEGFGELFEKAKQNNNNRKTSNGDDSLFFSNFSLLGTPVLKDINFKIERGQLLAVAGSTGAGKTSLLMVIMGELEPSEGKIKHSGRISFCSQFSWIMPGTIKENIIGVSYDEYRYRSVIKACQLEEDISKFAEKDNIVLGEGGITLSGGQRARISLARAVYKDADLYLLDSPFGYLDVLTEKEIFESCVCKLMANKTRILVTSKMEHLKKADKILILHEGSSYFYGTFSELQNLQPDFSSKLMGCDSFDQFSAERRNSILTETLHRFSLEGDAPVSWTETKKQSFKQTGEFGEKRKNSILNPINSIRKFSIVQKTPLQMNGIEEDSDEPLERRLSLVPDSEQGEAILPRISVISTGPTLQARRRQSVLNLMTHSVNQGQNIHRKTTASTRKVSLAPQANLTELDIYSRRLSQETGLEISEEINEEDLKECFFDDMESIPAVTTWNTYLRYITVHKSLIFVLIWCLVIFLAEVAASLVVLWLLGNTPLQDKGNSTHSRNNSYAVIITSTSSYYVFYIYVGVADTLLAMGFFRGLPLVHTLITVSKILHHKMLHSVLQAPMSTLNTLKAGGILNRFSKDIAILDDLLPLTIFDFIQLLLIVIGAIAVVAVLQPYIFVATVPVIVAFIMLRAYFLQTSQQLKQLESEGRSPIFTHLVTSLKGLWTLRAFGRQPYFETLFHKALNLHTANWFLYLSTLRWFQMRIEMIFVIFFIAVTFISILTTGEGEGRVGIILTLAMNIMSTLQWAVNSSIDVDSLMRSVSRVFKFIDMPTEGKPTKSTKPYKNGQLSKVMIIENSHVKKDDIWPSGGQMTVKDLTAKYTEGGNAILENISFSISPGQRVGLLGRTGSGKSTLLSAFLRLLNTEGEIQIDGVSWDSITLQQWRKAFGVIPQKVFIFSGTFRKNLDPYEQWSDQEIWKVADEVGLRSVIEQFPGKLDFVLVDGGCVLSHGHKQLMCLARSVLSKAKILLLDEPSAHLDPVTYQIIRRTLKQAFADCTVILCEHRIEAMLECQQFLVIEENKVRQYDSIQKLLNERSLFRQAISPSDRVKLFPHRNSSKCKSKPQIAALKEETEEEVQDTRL

Structure (SMILES) | Emax [1] [%] | EC50 [2] [nM] | Maximum % activity (with co-corrector) [3] | EC50 [4] [nM] | Maximum % activity (without co-corrector) [1] | Maximum % activity (with co-corrector) [5] | Emax [6] [%] | EC50 [7] [nM] | EC50 [8] [nM] | Maximum % activity (with co-corrector) [9] | Emax [10] [%]
CCc1c(C(=O)N2[C@H](C(=O)O)[C@@H](C(C)(C)C)[C@H](NCc3cc(C(C)(C)C)ccc3OC)[C@@H]2c2ccccc2)c(C)nn1-c1ccc(F)cc1 [II-359] | > 200 | 1000 to 10000 | +++ (≥350) | 1000 to 10000 | – | – | – | – | – | – | –
COc1ccc(C(C)(C)C)cc1CN[C@H]1[C@H](C(C)(C)C)[C@@H](C(=O)O)N(C(=O)C2Cc3ccccc3CO2)[C@H]1c1cccnc1N(C)C (single isomer, unassigned) [II-481] | – | 1000 to 10000 | +++ (≥350) | 1000 to 10000 | ++ (≥100 and <200) | – | – | – | – | – | –
COc1ccc(-c2ccccc2C#N)cc1CN[C@H]1[C@H](C(C)(C)C)[C@@H](C(=O)O)N(C(=O)C2CCCCC2)[C@H]1c1ccccc1 [Example I-128] | – | 1000 to 10000 | – | 1000 to 10000 | – | +++ (≥350) | 100 to 200 | – | – | – | –
Cc1ccc(CN[C@H]2[C@H](C(C)(C)C)[C@@H](C(=O)O)N(C(=O)C3CCCCC3)[C@H]2c2ccccc2)c(C)c1 [II-131] | – | – | – | – | – | – | – | 1000 to 10000 | 1000 to 10000 | ++ (≥150 and <350) | 100 to 200
COc1nc(C(C)(C)C)ccc1CN[C@H]1[C@H](C(C)(C)C)[C@@H](C(=O)O)N(C(=O)[C@H](C)c2ccccc2)[C@H]1c1ccccc1 [Example I-182] | – | 1000 to 10000 | – | 1000 to 10000 | – | +++ (≥350) | 100 to 200 | – | – | – | –
COc1cnc(C(C)(C)C)cc1CN[C@H]1[C@H](C(C)(C)C)[C@@H](C(=O)O)N(C(=O)C2CCCCC2)[C@H]1c1ccccc1 [Example 48, (2S,3S,4S,5S)-3-tert-butyl-4-{[(2-tert-butyl-5-methoxypyridin-4-yl)methyl]amino}-1-(cyclohexanecarbonyl)-5-phenylpyrrolidine-2-carboxylic acid] | – | 1000 to 10000 | – | 1000 to 10000 | – | +++ (≥350) | 100 to 200 | – | – | – | –
COc1ncc(C2CCC2)cc1CN[C@H]1[C@H](C(C)(C)C)[C@@H](C(=O)O)N(C(=O)C2CCCCO2)[C@H]1c1cccnc1N(C)C (some centres unmarked) [II-491] | > 200 | 1000 to 10000 | +++ (≥350) | 1000 to 10000 | – | – | – | – | – | – | –
COc1ncc(C(F)(F)F)cc1CN[C@H]1[C@H](C(C)(C)C)[C@@H](C(=O)O)N(C(=O)C2CCC(F)(F)C2)[C@H]1c1ccccc1C(C)C (some centres unmarked) [II-589] | 100 to 200 | < 1000 | +++ (≥350) | < 1000 | – | – | – | – | – | – | –
COc1ccc(C(C)(C)C)cc1CN[C@H]1[C@H](C(C)(C)C)[C@@H](C(=O)O)N(C(=O)[C@@H]2CCCCO2)[C@H]1c1cccnc1OC [Example I-209] | – | 1000 to 10000 | – | 1000 to 10000 | – | +++ (≥350) | > 200 | – | – | – | –
CC(C)(C)[C@H]1[C@H](Nc2nc(Cl)c(F)cc2C#N)[C@H](c2ccccc2)N(C(=O)C2CCCCC2)[C@@H]1C(=O)O [III-145] | < 100 | 1000 to 10000 | – | 1000 to 10000 | – | ++ (≥150 and <350) | – | – | – | – | –
COc1ncc(C(F)(F)F)cc1CN[C@H]1[C@H](C2(C)CC2)[C@@H](C(=O)O)N(C(=O)C2CCCCC2)[C@H]1c1ccccc1 [III-189] | < 100 | 1000 to 10000 | – | 1000 to 10000 | – | ++ (≥150 and <350) | – | – | – | – | –
COc1ccc(C(C)(C)C)cc1CN[C@H]1[C@H](C(C)(C)C)[C@@H](C(=O)O)N(C(=O)C2CCCC2)[C@H]1c1ccccc1 [II-332] | > 200 | 1000 to 10000 | +++ (≥350) | < 1000 | – | – | – | – | – | – | –
CC(C)c1ccccc1[C@H]1[C@@H](NCc2cc(C(C)(C)C)ccc2O)[C@H](C(C)(C)C)[C@@H](C(=O)O)N1C(=O)[C@@H]1CCCO1 [Example I-285] | – | – | – | – | – | – | – | > 10000 | < 1000 | + (<150) | < 100
COc1cccc([C@@H]2[C@H](NCc3cc(Cl)ccc3OC)[C@@H](C(C)(C)C)[C@H](C(=O)O)N2C(=O)C2CCCCC2)n1 (racemic) [II-19] | – | – | – | – | – | – | – | 1000 to 10000 | 1000 to 10000 | +++ (≥350) | 100 to 200
COc1ccc(C(C)(C)C)cc1CN[C@H]1[C@H](C(C)(C)C)[C@@H](C(=O)O)N(C(=O)[C@@H]2CCCO2)[C@H]1c1ccccc1C [Example I-261] | – | – | – | – | – | – | – | 1000 to 10000 | 1000 to 10000 | +++ (≥350) | > 200
COc1ccc(C(F)(F)F)cc1CN[C@H]1[C@H](C(C)(C)C)[C@@H](C(=O)O)N(C(=O)[C@@H](OC)c2ccccc2)[C@H]1c1ccccc1 [Example I-34] | – | 1000 to 10000 | – | 1000 to 10000 | – | +++ (≥350) | > 200 | – | – | – | –
COc1ccc2c(C)cc(N[C@H]3[C@H](C(C)(C)C)[C@@H](C(=O)O)N(C(=O)C4CCCCC4)[C@H]3c3ccccc3)nc2c1 [III-151] | < 100 | 1000 to 10000 | – | 1000 to 10000 | – | ++ (≥150 and <350) | – | – | – | – | –
COc1ncc(C(F)(F)F)cc1CN[C@@H]1[C@@H](C(C)(C)C)[C@H](C(=O)O)N(C(=O)C2CCCCC2)[C@@H]1c1ccccc1 (racemic) [III-81] | 100 to 200 | 1000 to 10000 | +++ (≥350) | 1000 to 10000 | – | – | – | – | – | – | –
COc1ccc(C(C)(C)C)cc1CN[C@H]1[C@H](C(C)(C)C)[C@@H](C(=O)O)N(C(=O)OC(C)C)[C@H]1c1cccnc1OC(F)F [Example I-227] | – | 1000 to 10000 | – | 1000 to 10000 | – | +++ (≥350) | 100 to 200 | – | – | – | –
COc1cccc(OC)c1CN[C@H]1[C@H](C(C)(C)C)[C@@H](C(=O)O)N(C(=O)C2CCCCC2)[C@H]1c1ccccc1 [II-407] | 100 to 200 | 1000 to 10000 | +++ (≥350) | 1000 to 10000 | – | – | – | – | – | – | –
COc1ccc(C(C)(C)C)cc1CN[C@H]1[C@H](C(C)(C)C)[C@@H](C(=O)O)N(C(=O)C2CCc3ccccc3O2)[C@H]1c1ccccc1 (single isomer, unassigned) [II-164] | – | – | – | – | – | – | – | < 1000 | < 1000 | +++ (≥350) | > 200
COc1ccc(C(C)(C)C)cc1CN[C@H]1[C@H](C(C)(C)C)[C@@H](C(=O)O)N(C(=O)C(OC)C2CC2)[C@H]1c1ccccc1 (single isomer, unassigned) [Example I-96] | – | 1000 to 10000 | – | – | – | +++ (≥350) | – | – | – | – | –
COc1ncc(C2CCC2)cc1CN[C@H]1[C@H](C23CC(C2)C3)[C@@H](C(=O)O)N(C(=O)OC(C)C)[C@H]1c1ccccc1 [Example I-236] | – | 1000 to 10000 | – | 1000 to 10000 | – | +++ (≥350) | 100 to 200 | – | – | – | –
COc1ccc(C(C)(C)C)cc1CN[C@H]1[C@H](C(C)(C)C)[C@@H](C(=O)O)N(C(=O)[C@H]2CCCCO2)[C@H]1c1ccccc1 [II-451] | > 200 | 1000 to 10000 | +++ (≥350) | 1000 to 10000 | – | – | – | – | – | – | –
COc1nc(C(C)(C)C)ccc1CN[C@H]1[C@H](C(C)(C)C)[C@@H](C(=O)O)N(C(=O)C2CCCCC2)[C@H]1c1ccccc1F [II-525] | 100 to 200 | 1000 to 10000 | +++ (≥350) | 1000 to 10000 | – | – | – | – | – | – | –
CC(C)(C)[C@H]1[C@H](Nc2ccc(Cn3ccccc3=O)cn2)[C@H](c2ccccc2)N(C(=O)C2CCCCC2)[C@@H]1C(=O)O [III-153] | < 100 | > 10000 | – | > 10000 | – | + (<150) | – | – | – | – | –
COc1ncc([Si](C)(C)C)cc1CN[C@H]1[C@H](C(C)(C)C)[C@@H](C(=O)O)N(C(=O)[C@@H]2CCCC(F)(F)C2)[C@H]1c1ccccc1 [Example I-189] | – | < 1000 | – | < 1000 | – | – | – | – | – | – | –
COc1ccc(C2(C(F)(F)F)CC2)cc1CN[C@H]1[C@H](C(C)(C)C)[C@@H](C(=O)O)N(C(=O)C2CCCCC2)[C@H]1c1ccccc1F [II-353] | > 200 | 1000 to 10000 | +++ (≥350) | < 1000 | – | – | – | – | – | – | –
COc1ncc(C2CCC2)cc1CN[C@H]1[C@H](C(C)(C)C)[C@@H](C(=O)O)N(C(=O)[C@@H]2CCCO2)[C@H]1c1ccccc1Br [Example 106, (2S,3S,4S,5S)-5-(2-bromophenyl)-3-tert-butyl-4-{[(5-cyclobutyl-2-methoxypyridin-3-yl)methyl]amino}-1-[(2S)-oxolane-2-carbonyl]pyrrolidine-2-carboxylic acid] | – | 1000 to 10000 | – | 1000 to 10000 | – | +++ (≥350) | 100 to 200 | – | – | – | –
COc1ccc(C(C)(C)C)cc1CN[C@H]1[C@H](C23CC(C2)C3)[C@@H](C(=O)O)N(C(=O)OC(C)C)[C@H]1c1cccnc1OC [Example 76, (2S,3S,4S,5S)-3-(bicyclo[1.1.1]pentan-1-yl)-4-{[(5-tert-butyl-2-methoxyphenyl)methyl]amino}-5-(2-methoxypyridin-3-yl)-1-{[(propan-2-yl)oxy]carbonyl}pyrrolidine-2-carboxylic acid] | – | 1000 to 10000 | – | 1000 to 10000 | – | +++ (≥350) | 100 to 200 | – | – | – | –
